Assay results taken from patent US8044074B2, “Substituted heterocycles, their use as medicament, and pharmaceutical preparations comprising them” (Sanofi-Aventis, priority 2005, dated 2011).

Each compound was assayed against T1, Human Kv1.5 channels (Homo sapiens, UniProt P22460) (assay: Activity on the Kv1.5 channel, two-microelectrode voltage clamp on xenopus oocytes). Conditions: human Kv1.5 expressed in Xenopus laevis oocytes; percent inhibition of control current fitted with Hill equation; room temperature; read-out: Kv1.5 IC-50.
T1 construct: expressed in transfected cells; host or cells: Xenopus laevis oocytes (injection of RNA synthesized in vitro)
Assay type: cell-based
Method: Determination of the Activity on the Kv1.5 Channel
Human Kv1.5 channels were expressed in xenopus oocytes. For this purpose, firstly oocytes were isolated from Xenopus laevis and defolliculated. Kv1.5-encoding RNA synthesized in vitro was then injected into these oocytes. After Kv1.5 protein expression for 1-7 days, Kv1.5 currents were measured on the oocytes using the two-microelectrode voltage clamp technique. The Kv1.5 channels were in this case usually activated with voltage jumps lasting 500 ms to 0 mV and 40 mV. A solution of the following composition flowed through the bath: NaCl 96 mM, KCl 2 mM, CaCl2 1.8 mM, MgCl2 1 mM, HEPES 5 mM (titrated to pH 7.4 with NaOH). These experiments were carried out at room temperature. The following were employed for data acquisition and analysis: Geneclamp amplifier (Axon Instruments, Foster City, USA) and MacLab D/A converter and software (ADinstruments, Castle Hill, Australia). The substances of the invention were tested by adding them in various concentrations to the bath solution. The effects of the substances were calculated as percent inhibition of the Kv1.5 control current which was obtained when no substance was added to the solution. The data were then extrapolated using the Hill equation in order to determine the inhibitory concentrations IC50 for the respective substances.

T1 sequence (P22460 whole entry): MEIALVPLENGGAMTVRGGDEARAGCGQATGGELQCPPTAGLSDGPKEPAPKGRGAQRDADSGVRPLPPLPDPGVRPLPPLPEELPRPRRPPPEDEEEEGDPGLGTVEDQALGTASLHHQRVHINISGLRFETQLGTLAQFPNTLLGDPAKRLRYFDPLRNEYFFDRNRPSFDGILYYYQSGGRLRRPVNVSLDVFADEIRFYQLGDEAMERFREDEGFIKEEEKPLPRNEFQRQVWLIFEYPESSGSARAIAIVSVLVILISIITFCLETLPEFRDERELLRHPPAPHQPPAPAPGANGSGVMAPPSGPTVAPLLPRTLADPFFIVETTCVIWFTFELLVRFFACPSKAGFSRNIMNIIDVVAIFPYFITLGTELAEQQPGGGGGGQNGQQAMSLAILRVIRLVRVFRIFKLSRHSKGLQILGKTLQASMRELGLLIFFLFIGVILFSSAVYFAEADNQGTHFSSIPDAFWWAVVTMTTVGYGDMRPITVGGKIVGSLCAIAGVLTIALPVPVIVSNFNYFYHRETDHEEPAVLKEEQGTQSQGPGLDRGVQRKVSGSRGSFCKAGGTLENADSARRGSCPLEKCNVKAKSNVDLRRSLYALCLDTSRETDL

Row | SMILES | IC50
1 | O=c1ccccn1[C@H](c1ccc(F)cc1)[C@H](OCC1CC1)c1ccc(F)cc1 (racemic) [Example 8, 1R′,2R′-1-[2-Cyclopropylmethoxy-1,2-bis(4-fluorophenyl)ethyl]-1H-pyridin-2-one] | 330 nM
2 | COc1ccc([C@@H](OCC2CC2)[C@H](c2ccc(F)cc2)n2ccccc2=O)cc1 (racemic) [Example 2, 1R′,2S′-1-[2-Cyclopropylmethoxy-1-(4-fluorophenyl)-2-(4-methoxy-phenyl)ethyl]-1H-pyridin-2-one] | 1300 nM
3 | O=c1ccc(F)cn1C(c1ccc(F)cc1)C(OCC1CC1)c1ccc(F)cc1 (racemic) [Example 16, 1-[2-Cyclopropylmethoxy-1,2-bis-(4-fluorophenyl)ethyl]-5-fluoro-1H-pyridin-2-one] | 4560 nM
4 | N#Cc1ccc(COC(c2ccc(Cl)cc2)C(c2ccccc2)n2ccccc2=O)cc1 (racemic) [Example 15, 4-[1-(4-Chlorophenyl)-2-(2-oxo-2H-pyridin-1-yl)-2-phenylethoxymethyl]benzonitrile] | 2510 nM
5 | COc1ccc(CO[C@H](c2ccc(OC)cc2)[C@H](c2ccc(F)cc2)n2ccccc2=O)cc1 (racemic) [Example 18, 1R′,2S′-1-[1-(4-Fluorophenyl)-2-(4-methoxybenzyloxy)-2-(4-methoxyphenyl)ethyl]-1H-pyridin-2-one] | 2690 nM
6 | O=c1ccc(F)cn1C(c1ccccc1)C(OCC1CC1)c1ccccc1 (racemic) [Example 3, 1-(2-Cyclopropylmethoxy-1,2-diphenylethyl)-5-fluoro-1H-pyridin-2-one] | 780 nM
7 | O=c1ccccn1[C@@H](c1ccc(F)cc1)[C@H](OCC1CC1)c1ccc(F)cc1 (racemic) [Example 9, 1R′,2S′-1-[2-Cyclopropylmethoxy-1,2-bis-(4-fluorophenyl)ethyl]-1H-pyridin-2-one] | 410 nM
8 | O=c1ccccn1[C@H](c1ccccc1)[C@H](OCC1CC1)c1ccccc1 (racemic) [Example 1, 1R′,2R′-1-(2-Cyclopropylmethoxy-1,2-diphenylethyl)-1H-pyridin-2-one] | 380 nM
9 | COc1ccc(CO[C@H](c2ccc(OC)cc2)[C@@H](c2ccc(F)cc2)n2ccccc2=O)cc1 (racemic) [Example 13, 1R′,2R′-1-[1-(4-Fluorophenyl)-2-(4-methoxybenzyloxy)-2-(4-methoxyphenyl)ethyl]-1H-pyridin-2-one] | 4480 nM
10 | O=c1ccccn1C(c1ccc(F)cc1)C(OCC1CC1)c1ccc(F)cc1 (racemic) [Example 14, 1-[2-Cyclopropylmethoxy-1,2-bis-(4-fluorophenyl)ethyl]-1H-pyridin-2-one] | 1400 nM
11 | O=c1ccccn1C(c1ccc(F)cc1)C(OCC1CC1)c1ccc(Br)cc1 (racemic) [Example 10, 1-[2-(4-Bromophenyl)-2-cyclopropylmethoxy-1-(4-fluorophenyl)ethyl]-1H-pyridin-2-one] | 870 nM
12 | O=c1ccc(F)cn1[C@H](c1ccccc1)[C@H](OCC1CC1)c1ccccc1 (racemic) [Example 12, 1R′,2R′-1-(2-Cyclopropylmethoxy-1,2-diphenylethyl)-5-fluoro-1H-pyridin-2-one] | 1470 nM
13 | COc1ccc([C@@H](OCC2CC2)[C@@H](c2ccc(F)cc2)n2ccccc2=O)cc1 (racemic) [Example 17, 1R′,2R′-1-[2-Cyclopropylmethoxy-1-(4-fluorophenyl)-2-(4-methoxyphenyl)ethyl]-1H-pyridin-2-one] | 1830 nM
14 | N#Cc1ccc(C(OCC2CC2)C(c2ccc(F)cc2)n2ccccc2=O)cc1 (racemic) [Example 11, 4-[1-Cyclopropylmethoxy-2-(4-fluorophenyl)-2-(2-oxo-2H-pyridin-1-yl)ethyl]benzonitrile] | 2030 nM
15 | O=c1cccnn1C(c1ccccc1)C(OCC1CC1)c1ccc(Cl)cc1 (racemic) [Example 4, 2-[2-(4-Chlorophenyl)-2-cyclopropylmethoxy-1-phenylethyl]-2H-pyridazin-3-one] | 1050 nM
16 | O=c1ccc(F)cn1C(c1ccc(F)cc1)C(OC1CC1)c1ccc(F)cc1 (racemic) [Example 6, 1-[2-Cyclopropoxy-1,2-bis-(4-fluorophenyl)ethyl]-5-fluoro-1H-pyridin-2-one] | 6480 nM
17 | O=c1ccccn1C(c1ccccc1)C(OCC1CC1)c1ccc(Cl)cc1 (racemic) [Example 7, 1-[2-(4-Chlorophenyl)-2-cyclopropylmethoxy-1-phenylethyl]-1H-pyridin-2-one] | 180 nM
18 | N#Cc1ccc(O[C@H](c2ccc(F)cc2)[C@@H](c2ccc(F)cc2)n2cc(F)ccc2=O)cc1 (racemic) [Example 5, 1R′,2R′-5-Fluoro-1-(2-p-cyanophenoxy-1,2-di-p-fluorophenylethyl)-1H-pyridin-2-one] | 20000 to 50000 nM

These compounds were tested against Human TASK-1 channels (UniProt O14649) (assay: Activity on the TASK-1 channel, two-microelectrode voltage clamp on xenopus oocytes). Conditions: TASK-1 expressed in Xenopus laevis oocytes; percent inhibition of control current fitted with Hill equation; room temperature; read-out: mTask-1 IC-50.
Assay type: cell-based
Method: Determination of the Activity on the TASK-1 Channel
Human TASK-1 channels were expressed in xenopus oocytes. For this purpose, firstly oocytes were isolated from Xenopus laevis and defolliculated. TASK-1-encoding RNA synthesized in vitro was then injected into these oocytes. After TASK-1 protein expression for 2 days, TASK-1 currents were measured on the oocytes using the two-microelectrode voltage clamp technique. The TASK-1 channels were in this case usually activated with voltage jumps lasting 250 ms to 40 mV. A solution of the following composition flowed through the bath: NaCl 96 mM, KCl 2 mM, CaCl2 1.8 mM, MgCl2 1 mM, HEPES 5 mM (titrated to pH 7.4 with NaOH). These experiments were carried out at room temperature. The following were employed for data acquisition and analysis: Geneclamp amplifier (Axon Instruments, Foster City, USA) and MacLab D/A converter and software (ADinstruments, Castle Hill, Australia). The substances of the invention were tested by adding them in various concentrations to the bath solution. The effects of the substances were calculated as percent inhibition of the TASK-1 control current which was obtained when no substance was added to the solution. The data were then extrapolated using the Hill equation in order to determine the half-maximum inhibitory concentrations (IC50) for the respective substances.

Row | SMILES | IC50
19 | O=c1ccccn1[C@@H](c1ccc(F)cc1)[C@H](OCC1CC1)c1ccc(F)cc1 (racemic) [Example 9, 1R′,2S′-1-[2-Cyclopropylmethoxy-1,2-bis-(4-fluorophenyl)ethyl]-1H-pyridin-2-one] | 3100 nM
